Results as given in patent US12246005B2, “5-methoxy-n,n-dimethyltryptamine (5-MeO-DMT) formulations” (Beckley Psytech Limited, priority 2023, dated 2025).
“Also recorded” adds a separate entry of the source. Counter-ions that a name gives are not always drawn.

Assays:
[1] = Thermal decomposition properties of salt forms (TGA); format: physicochemical
Description: The thermal decomposition properties of a range of salt forms of 5-MeO-DMT has been investigated and is summarised in the report below: […]

[2] = Previous preclinical work in dogs defining maximum exposure limits; settings: dog, in vivo
[3] = Phase 1 single ascending dose study of intranasal 5-MeO-DMT benzoate (safety, tolerability, pharmacokinetics); format: in vivo, human
Description: (§1) The applicant has funded double-blind, randomized, Phase 1, single ascending dose studies to evaluate the safety, tolerability and pharmacokinetic profile of intranasal 5-MeO-DMT hydrochloride and intranasal 5-MeO-DMT benzoate in healthy subjects. […] It is desirable that a compound for use in treatment has dose-proportional pharmacokinetics, for example, to facilitate dose and dose regimen adjustment in patients. In an embodiment, there is provided a salt of 5-MeO-DMT with dose-proportional pharmacokinetics, optionally for use in the methods disclosed herein. In an embodiment, the salt of 5-MeO-DMT with dose-proportional pharmacokinetics is the benzoate or HBr salt, optionally the benzoate salt. A double-blind, randomized, Phase 1, single ascending dose study to evaluate the safety, tolerability and pharmacokinetic profile of a liquid intranasal 5-MeO-DMT HCl (5-MeO-DMT HCl, HPMC, water for injection (WFI) and a sodium hydroxide solution to adjust pH) formulation in healthy subjects was performed.
A double-blind, randomized, Phase 1, single ascending dose study to evaluate the safety, tolerability and pharmacokinetic profile of intranasal 5-MeO-DMT benzoate in healthy subjects was performed.

[4] = Solubility studies of lyophilised amorphous form (dissolution rate); format: physicochemical
Description: Amorphous 5-MeO-DMT salt formulations have been produced via lyophilisation processes. It is noted that in some cases these have low glass transition temperatures. Conversion to a crystalline form may therefore occur, perhaps rapidly.

Irritation tolerability = settings: in particular when compared to the chloride salt
[5] = at 20° C. water; cited from earlier work
[6] = Phase 1 single ascending dose study of liquid intranasal 5-MeO-DMT HCl formulation; format: in vivo, human; settings: liquid intranasal formulation, 5, 8, 10, 11 and 14 mg, healthy subjects
Description: as §1

Hygroscopicity = format: physicochemical
Description: In an embodiment, the formulation is non-hygroscopic. […] Hygroscopicity is the phenomenon of attracting and holding water molecules via either adsorption or absorption from the surrounding environment. Pharmaceuticals that pick up less than 0.2% moisture at 80% RH are considered non hygroscopic. […] Pharmaceuticals that pick up more than 15.0% moisture at 80% RH are considered very hygroscopic. Hygroscopic substances are difficult to handle and costly and burdensome measures must be taken in order to ensure they are not exposed to moisture during process and formulation. Exposed to moisture, hygroscopic substances can take on water and convert to a hydrous form. This presents several disadvantages. First, the hydrous forms may have the disadvantage of being less bioavailable and less dissoluble than the anhydrous forms. Second, the variation in the amount of hydrous versus anhydrous substance from batch to batch could fail to meet specifications set by drug regulatory agencies. […] Fourth, in addition to problems caused by introduction of moisture during the processing of these hygroscopic substances, the potential for absorbance of moisture during storage and handling would adversely affect the dissolubility of the drug substance.

COc1ccc2[nH]cc(CCN(C)C)c2c1 [Ketoglutarate, 5-MeO-DMT ketoglutarate]
TGA Guidance: decomposition temperature [1]: Melt 85° C., gross dcomp starts 170 °C

COc1ccc2[nH]cc(CCN(C)C)c2c1 [Saccharinate, 5-MeO-DMT saccharinate]
TGA Guidance: decomposition temperature [1]: Melt 80° C., gross dcomp starts 180 °C

COc1ccc2[nH]cc(CCN(C)C)c2c1 [Example 5-MeO-DMT, 5-methoxy-N,N-dimethyltryptamine]
AUC ([2]; read-out: maximum exposure limit AUC): 220 ng·h/mL | Cmax ([2]; read-out: maximum exposure limit Cmax): 421 ng/mL

COc1ccc2[nH]cc(CCN(C)C)c2c1.O=S(=O)(O)c1ccccc1 [Benzenesulfonate, 5-MeO-DMT benzenesulfonate]
TGA Guidance: decomposition temperature [1]: Melt 76° C., gross dcomp starts 280 °C

CN(C)CCc1c[nH]c2ccc(O)cc12 [Bufotenin]
detection of metabolite in plasma ([3]; after intranasal 5-MeO-DMT benzoate, 6 mg dose level, after the 16 minutes timepoint): only detected at very low levels

5-MeO-DMT glycolate
TGA Guidance: decomposition temperature [1]: Melt 95° C., gross dcomp starts 170 °C

COc1ccc2[nH]cc(CCN(C)C)c2c1 [Tosylate, 5-MeO-DMT tosylate]
TGA Guidance: decomposition temperature [1]: Melt 110° C, gross dcomp starts 280 °C ° C.

COc1ccc2[nH]cc(CCN(C)C)c2c1.O=C(O)c1ccccc1 [5-MeO-DMT benzoate]
dose proportionality of pharmacokinetics ([3]; intranasal single ascending dose, healthy subjects): exhibits dose-proportional pharmacokinetics; also recorded: approximately dose linear | mean Cmax ([3]; intranasal, 12 mg dosage, healthy subjects, plasma 5-MeO-DMT): 29 ng/mL | mean Tmax ([3]; intranasal, healthy subjects): 9.5 min | mean half-life (T1/2) ([3]; intranasal, healthy subjects): 21 min | TGA Guidance: decomposition temperature [1]: ~220 °C | TGA Guidance: mass loss [1]: full mass loss | dissolution rate [4]: almost instantaneous dissolution rate | irritation tolerability (Irritation tolerability): good irritation tolerability

isomalt
Solubility [5]: 42 g/100 g solution

5-MeO-DMT malate
TGA Guidance: decomposition temperature [1]: Melt 100° C, gross dcomp starts 250 °C

5-MeO-DMT tartrate
TGA Guidance: decomposition temperature [1]: Melt ~140° C., decomp ~200 °C

COc1ccc2[nH]cc(CCN(C)C)c2c1 [Fumarate, 5-MeO-DMT fumarate]
TGA Guidance: decomposition temperature [1]: Decomp around 200 °C

COc1ccc2[nH]cc(CCN(C)C)c2c1 [Phosphate, 5-MeO-DMT phosphate]
TGA Guidance: decomposition temperature [1]: Decomp around 200 °C

COc1ccc2[nH]cc(CCN(C)C)c2c1.Cl [5-MeO-DMT HCl, 5-MeO-DMT hydrochloride]
dose proportionality of pharmacokinetics [6]: does not display dose-proportional pharmacokinetics

Br.COc1ccc2[nH]cc(CCN(C)C)c2c1 [Hydrobromide, 5-MeO-DMT hydrobromide]
TGA Guidance: decomposition temperature [1]: Melt 149° C., gross dcomp starts 220 °C | hygroscopicity (Hygroscopicity): non-hygroscopic

COc1ccc2[nH]cc(CCN(C)C)c2c1.O=C(O)C(=O)O [Oxalate, 5-MeO-DMT oxalate]
TGA Guidance: mass loss [1]: Melts 176° C., full mass loss
